Assay results reported in US20020174454A1, “Overexpression of ABI5 in plants to prevent precocious seed germination and to confer resistance to drought and high salt” (priority 2001, published 2002).

Key:
Assay type in all cases: in vivo, Arabidopsis thaliana
[1] = test system: Ws/35S::HA-ABI5 transgenic plants; experiment: Germination and growth of ABI5 overexpressing transgenic seeds on ABA
Experimental: To determine whether the presence of ABI5 is sufficient to arrest growth in the absence of ABA, we expressed the ABI5 gene from a constitutive promoter. Transgenic Arabidopsis lines expressing ABI5 under the control of the cauliflower mosaic virus 35S promoter in WT Ws or abi5-4 backgrounds were generated and several independent lines expressing various levels of ABI5 were obtained. WT Ws and Ws/35S::HA-ABI5 transgenic plants were grown for 5 days with 0, 0.5 and 5 μM ABA. In the transgenic line shown in FIG. 5A, ABI5 levels in absence of ABA were at least five fold higher than that in WT plants grown in the presence of ABA. Transgenic seeds were arrested in development at 0.5 μM ABA and only started to germinate after 5 days (FIG. 5A). WT Ws seeds were insensitive to 0.5 μM ABA and were fully germinated in 5 μM ABA after 5 days (FIG. 5A). Despite the accumulation of ABI5, the lines germinated and developed normally in the absence of ABA.
We next investigated the effect of ABA in ABI5 overexpressing lines. Addition of 5 μM ABA severely delayed germination by at least 7 days and blocked mature embryo growth in several lines. To measure more precisely the ABA response, we plated WT/35S::HA-ABI5 transgenic seeds on growth media containing different ABA concentrations. Treatment of WT/35S::HA-ABI5 plants with 0.5 μM ABA was sufficient to phenocopy the response of WT plants exposed to 5 μM ABA (FIG. 5A).

[2] = test system: Ws/35S::HA-ABI5 transgenic lines; experiment: ABA inhibition of root growth, ABI5-overexpressing lines; details: 5-day old seedlings, 5 and 10 μM ABA for 5 days, n=15
Experimental: (§1) The following methods were used in obtaining the further results described below. WT Ws seedlings and transgenic Ws seedlings carrying 35S::HA -ABI5 (WT/35S::HA -ABI5, T3 generation) were germinated and grown for 5 days on MS medium without ABA. Seedlings were then transferred to plates containing 5 μM ABA, and subsequent root growth was scored after 5 days. Values were expressed as the average ±SD of 15 seedlings. For water loss measurement, young rosette leaves at the same developmental stage were excised from WT Ws, WT/35S::HA-ABI5 and abi1 plants and weighed at the different times indicated (n=3).
(§2) At 0.5 μM ABA, WT plants grew normally (FIG. 5A). Inhibition of root growth by ABA was unaffected in abi5-4 mutants but was exacerbated in ABI5-overexpressing lines (FIG. 5B). Five-day old seedlings grown in the absence of ABA were transferred to 0, 5 and 10 μM ABA plates for 5 days. The root length of ABA-treated seedlings was expressed as a percentage of non-treated controls (n=15).

WT Ws plants = experiment: Survival after drought treatment on absorbing papers, WT Ws plants treated with ABA for 10 days; details: +ABA 5 μM for 10 days, n = 30
Experimental: (§3) Seeds of Arabidopsis thaliana, ecotype Wassilewskija, Columbia or Landsberg erecta were surface sterilized in 50% commercial bleach (Clorox) and 0.05% Tween 20 as described (Lopez-Molina and Chua, 2000) and then plated on Murashige and Skoog (MS) medium (Murashige and Skoog, 1962) containing 0.8% (w/v) Bacto-Agar (Difco Laboratories). Plates were routinely kept for 3 days in the dark at 4° C. to break dormancy (stratification) and transferred thereafter to a tissue culture room under constant white fluorescent light (27 μmol.m^−2.s^−1) at 22° C. Seeds of abi1, abi3-I and abi4 were obtained from the Nottingham Arabidopsis Stock Center (NASC). For ABA treatments, seedlings were transferred to plates supplemented with ABA (mixed isomers, Sigma A7393) which was dissolved in methanol. Control plates contained equal amounts of methanol.
(§4) To test this hypothesis, we broke embryo dormancy of WT and abi5-4 seeds in the absence of ABA for 24 hours. Seeds were then transferred for an additional 10 days to media with or without ABA. After 10 days, ABA-treated WT mature embryos had germinated but were arrested in growth as described above, whereas abi5-4 or non-treated WT Ws plants were green and continued to grow. Plants were then water-stressed for different time intervals on absorbent papers before being allowed to recover in normal medium. […] This is in sharp contrast with abi5-4 embryos, none of which survived. abi5-4 plants were able to survive better with than without ABA (Table 1), although not to the same extent as WT. […] Indeed, abi5-4 plants grow more slowly on 5 μM ABA than on medium lacking it, whereas the growth of WT plants is completely arrested. This developmental difference may be responsible for the higher resistance to water depletion of ABA-treated abi5-4 plants (Table 1).

abi5-4 mutants = experiment: ABA inhibition of root growth, abi5-4 mutants
Experimental: as §1, §2

abi5-4 plants = experiment: Survival after drought treatment on absorbing papers, abi5-4 plants treated with ABA for 10 days; details: abi5, +ABA 5 μM for 10 days, n = 30
Experimental: as §3, §4

WT Ws seeds = experiment: Germination and early growth arrest of WT seeds on ABA plates
Experimental: as §3
Given the ABA-insensitivity of abi5-4 mutant and the timing of ABI5 induction upon ABA exposure, we studied the effect of ABA on growth during early development. […] Virtually all WT seeds were fully germinated on 5 μM ABA only 5 days post-stratification (FIG. 3C). Similar results were obtained with different Ws seed batches and for the ecotypes Landsberg and Columbia. At 10 μM ABA, complete germination was observed 8 days post-stratification (FIG. 3D). […] ABI5 levels remained constant as long as ABA was present. […] Upon ABA removal, all of the embryos started to green and resumed normal growth.

ABI5 = ABI5 protein accumulation in WT Ws seeds/seedlings by Western blot
Excerpt: RNA extraction and Northern blot hybridizations were done as described (Lopez-Molina and Chua, 2000). A DNA fragment encoding the ABI5 open reading frame was cloned into pET28a (Novagen) and the recombinant protein was induced and purified using a commercial kit according to the manufacturer's instructions (His trap, Amersham Pharmacia). Polyclonal anti-ABI5 antiserum was obtained from rabbits immunized with His-tagged ABI5. Standard methods using His-ABI5 coupled to a CNBr activated Sepharose 6-MB column (Amersham Pharmacia) were used to affinity purify specific ABI5 antibody from sera.
Plant protein extracts were resolved under reducing conditions using 10% SDS-polyacrylamide gels (Laemmli, 1970). […]
ABA concentrations (3-10 μM) that discriminate between abi5-4 mutants and WT under normal growth conditions were selected. […] Indeed, by immunoblot analysis, the ABI5 protein with a molecular mass of about 50 Kd was detected two days after stratification in the presence of ABA. […]
To determine whether the observed ABA-dependent accumulation of ABI5 levels was restricted to early development, we stratified WT seeds in the absence of ABA and then transferred the seedlings at different time intervals to a medium supplemented with 5 μM ABA (FIG. 3A). […] ABI5 levels were monitored by Western blot analysis. […] ABI5 levels were monitored by Western blot analyses as described for FIG. 1 (FIG. 3B).

HA-ABI5 = HA-ABI5 accumulation in WT/35S::HA-ABI5 transgenic lines by immunoblot; details: WT/35S::HA-ABI5 lines, anti-HA immunoblot
Experimental: Given the strong ABA-dependent ABI5 protein accumulation, we were interested to determine whether ABI5 protein stability is altered in the presence of ABA. For this purpose we generated WT/35S::HA-ABI5 transgenic lines constitutively expressing HA-ABI5 transcript. DNA manipulations were performed according to standard methods (Sambrook et al., 1989). 35S constructs were generated using a binary vector (Kost et al., 1998). Transgenic Arabidopsis lines (Ws ecotype) were generated using the Agrobacterium tumefaciens vacuum-infiltration method (Bechtold and Pelletier, 1998). Seeds (T1) from infiltrated plants were plated on MS medium containing 10 mg/L gluphosinate ammonium (Crescent Chemical) and 100 mg/L cefotaxime (Sigma).
In these lines, HA-ABI5 accumulation is 5-10 fold higher in the presence of ABA as shown by immunoblot analysis using anti-HA antibodies. 8-day old Ws/35S::HA-ABI5 seedlings (T3 generation) were transferred to MS medium with or without 50 μM ABA. Proteins were extracted at 0 hours, 10 minutes, 1 hour, 2 hours and 30 minutes, and 6 hours and ABI5 protein levels were monitored by Western blot analysis using antibodies to HA (FIG. 2A; each lane contains 5 μg protein). […] Equal amounts (5 μg) of protein were loaded on a 10% SDS-polyacrylamide (Novex) gel and analyzed by Western blots using rabbit antibody to HA (1:3,000; Santa Cruz).

## CC1=CC(=O)CC(C)(C)[C@@]1(O)/C=C/C(C)=C\C(=O)O [ABA, Abscisic acid]
[1]; ABI5 overexpressing lines, 5 μM ABA
  delay of germination: at least 7 days
[1]; WT/35S::HA-ABI5 plants
  ABA concentration sufficient to phenocopy the response of WT plants exposed to 5 μM ABA: 0.5 µM
[1]; Ws/35S::HA-ABI5 seeds, 0.5 μM ABA
  time after which arrested transgenic seeds started to germinate: 5 days
[2]
  inhibition of root growth by ABA compared with WT Ws: exacerbated
WT Ws plants; 0 hours drought
  Percentage of survival after different period of drought treatment (hours): 100%
WT Ws plants; 8 hours drought
  Percentage of survival after different period of drought treatment (hours): 100%
WT Ws plants; 12 hours drought
  Percentage of survival after different period of drought treatment (hours): 98%
WT Ws plants; 24 hours drought
  Percentage of survival after different period of drought treatment (hours): 90%
WT Ws plants; 36 hours drought
  Percentage of survival after different period of drought treatment (hours): 84%
abi5-4 mutants
  inhibition of root growth by ABA: unaffected
abi5-4 plants; 0 hours drought
  Percentage of survival after different period of drought treatment (hours): 100%
abi5-4 plants; 8 hours drought
  Percentage of survival after different period of drought treatment (hours): 97%
abi5-4 plants; 12 hours drought
  Percentage of survival after different period of drought treatment (hours): 55%
abi5-4 plants; 24 hours drought
  Percentage of survival after different period of drought treatment (hours): 20%
abi5-4 plants; 36 hours drought
  Percentage of survival after different period of drought treatment (hours): 0%
WT Ws seeds; 0.5 μM ABA, 5 days
  response of WT Ws seeds to ABA: insensitive
WT Ws seeds; ABA concentration range 3 to 10 μM
  time after which all seeds fully germinate in the presence of ABA: 10 days
WT Ws seeds; WT germinated embryos kept on ABA for at least a month, n=200
  embryos remaining white and quiescent, not growing: 95%±3
WT Ws seeds; WT seeds, 5 μM ABA
  time at which virtually all seeds were fully germinated: 5 days post-stratification
WT Ws seeds; WT seeds, 10 μM ABA
  time at which complete germination was observed: 8 days post-stratification
ABI5; WT Ws transferred to 5 μM ABA plates
  developmental window of efficient induction of ABI5 accumulation: 48-60 hours post-stratification
ABI5; WT Ws, 5 μM ABA, first two days post-stratification
  increase of ABI5 protein level in the presence of ABA: at least 10 fold
HA-ABI5
  HA-ABI5 accumulation higher in the presence of ABA: 5-10 fold
